Data reported in patent publication US20230111310A1, “CARBOXYLIC ACID DERIVATIVE-SUBSTITUTED IMINO ARYL COMPOUND, PREPARATION METHOD THEREFOR, HERBICIDAL COMPOSITION AND USE THEREOF” (Qingdao Kingagroot Chemical Compound Co., Ltd., priority 2020, published 2023).

Legend:
Assay in all cases: Weeding effect in post-emergence stage
Format in all cases: in vivo
[1] = tested on: Abutilon theophrasti; conditions: for Weeding effect in post-emergence stage, Abutilon theophrasti: level of fresh weight growth control rate; for Weeding effect in post-emergence stage, Abutilon theophrasti (level): fresh weight control rate level
Summary of the method: (§1)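 Compound, dissolved in acetone and diluted in water with Tween 80 plus methyl oleate EC (1.5 liter/ha), is sprayed onto 2-3 leaf potted plants. Rates span 7.5–500 g/ha. After 3 weeks of greenhouse culture, weeding effect is counted as the mean of triplicates.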

[2] = tested on: Alopecurus japonicus; conditions: for Weeding effect in post-emergence stage, Alopecurus japonicus: level of fresh weight growth control rate; for Weeding effect in post-emergence stage, Alopecurus japonicus (level): fresh weight control rate level
Summary of the method: as §1

[3] = tested on: Digitaria sanguinalis; conditions: for Weeding effect in post-emergence stage, Digitaria sanguinalis: level of fresh weight growth control rate; for Weeding effect in post-emergence stage, Digitaria sanguinalis (level): fresh weight control rate level
Summary of the method: as §1

[4] = tested on: Eleusine indica; conditions: for Weeding effect in post-emergence stage, Eleusine indica: level of fresh weight growth control rate; for Weeding effect in post-emergence stage, Eleusine indica (level): fresh weight control rate level
Summary of the method: as §1

[5] = tested on: Setaria viridis; conditions: for Weeding effect in post-emergence stage, Setaria viridis: level of fresh weight growth control rate; for Weeding effect in post-emergence stage, Setaria viridis (level): fresh weight control rate level
Summary of the method: as §1

[6] = tested on: Echinochloa crusgalli; conditions: for Weeding effect in post-emergence stage, Echinochloa crusgalli: level of fresh weight growth control rate; for Weeding effect in post-emergence stage, Echinochloa crusgalli (level): fresh weight control rate level
Summary of the method: as §1

| Compound | Weeding effect in post-emergence stage, Abutilon theophrasti ([1]; Dose 15 g/ha) | Weeding effect in post-emergence stage, Alopecurus japonicus ([2]; Dose 15 g/ha) | Weeding effect in post-emergence stage, Digitaria sanguinalis ([3]; Dose 15 g/ha) | Weeding effect in post-emergence stage, Eleusine indica ([4]; Dose 15 g/ha) | Weeding effect in post-emergence stage, Setaria viridis ([5]; Dose 15 g/ha) | Weeding effect in post-emergence stage, Echinochloa crusgalli ([6]; Dose 15 g/ha) | other results |
| --- | --- | --- | --- | --- | --- | --- | --- |
| CC(O/N=C/c1cc(-n2c(=O)cc(C(F)(F)F)n(C)c2=O)c(F)cc1Cl)C(=O)OCCF (racemic) [Compound 216] | 5 (Level 5: growth control rate is above 85%) | 4 (Level 4: growth control rate is greater than or equal to 60% and less than 85%) | 5 (Level 5: growth control rate is above 85%) | 5 (Level 5: growth control rate is above 85%) | 5 (Level 5: growth control rate is above 85%) | 5 (Level 5: growth control rate is above 85%) |  |
| CC(O/N=C/c1cc(-n2c(=O)cc(C(F)(F)F)n(C)c2=O)c(F)cc1Cl)C(=O)OCC(F)F (racemic) [Compound 217] | 5 (Level 5: growth control rate is above 85%) | 5 (Level 5: growth control rate is above 85%) | 5 (Level 5: growth control rate is above 85%) | 5 (Level 5: growth control rate is above 85%) | 5 (Level 5: growth control rate is above 85%) | 5 (Level 5: growth control rate is above 85%) |  |
| CC(O/N=C/c1cc(-n2c(=O)cc(C(F)(F)F)n(C)c2=O)c(F)cc1Cl)C(=O)OCC(F)(F)F (racemic) [Compound 218] | 5 (Level 5: growth control rate is above 85%) | 5 (Level 5: growth control rate is above 85%) | 5 (Level 5: growth control rate is above 85%) | 5 (Level 5: growth control rate is above 85%) | 5 (Level 5: growth control rate is above 85%) | 5 (Level 5: growth control rate is above 85%) |  |
| CC(O/N=C/c1cc(-n2c(=O)cc(C(F)(F)F)n(C)c2=O)c(F)cc1Cl)C(=O)OCC(C)(F)F (racemic) [Compound 220] | 5 (Level 5: growth control rate is above 85%) | 5 (Level 5: growth control rate is above 85%) | 5 (Level 5: growth control rate is above 85%) | 5 (Level 5: growth control rate is above 85%) | 5 (Level 5: growth control rate is above 85%) | 5 (Level 5: growth control rate is above 85%) |  |
| CC(O/N=C/c1cc(-n2c(=O)cc(C(F)(F)F)n(C)c2=O)c(F)cc1Cl)C(=O)OCCC(F)(F)F (racemic) [Compound 221] | 5 (Level 5: growth control rate is above 85%) | 4 (Level 4: growth control rate is greater than or equal to 60% and less than 85%) | 5 (Level 5: growth control rate is above 85%) | 5 (Level 5: growth control rate is above 85%) | 5 (Level 5: growth control rate is above 85%) | 5 (Level 5: growth control rate is above 85%) |  |
| CC(O/N=C/c1cc(-n2c(=O)cc(C(F)(F)F)n(C)c2=O)c(F)cc1Cl)C(=O)OC/C=C/Cl (racemic) [Compound 225] | 5 (Level 5: growth control rate is above 85%) | 4 (Level 4: growth control rate is greater than or equal to 60% and less than 85%) | 5 (Level 5: growth control rate is above 85%) | 5 (Level 5: growth control rate is above 85%) | 5 (Level 5: growth control rate is above 85%) | 5 (Level 5: growth control rate is above 85%) |  |
| CC(O/N=C/c1cc(-n2c(=O)cc(C(F)(F)F)n(C)c2=O)c(F)cc1Cl)C(=O)OCC#N (racemic) [Compound 226] | 5 (Level 5: growth control rate is above 85%) | 5 (Level 5: growth control rate is above 85%) | 5 (Level 5: growth control rate is above 85%) | 5 (Level 5: growth control rate is above 85%) | 5 (Level 5: growth control rate is above 85%) | 5 (Level 5: growth control rate is above 85%) |  |
| CC(O/N=C/c1cc(-n2c(=O)cc(C(F)(F)F)n(C)c2=O)c(F)cc1Cl)C(=O)OCCC#N (racemic) [Compound 227] | 5 (Level 5: growth control rate is above 85%) | 5 (Level 5: growth control rate is above 85%) | 5 (Level 5: growth control rate is above 85%) | 5 (Level 5: growth control rate is above 85%) | 5 (Level 5: growth control rate is above 85%) | 5 (Level 5: growth control rate is above 85%) |  |
| CC(O/N=C/c1cc(-n2c(=O)cc(C(F)(F)F)n(C)c2=O)c(F)cc1Cl)C(=O)OCCO (racemic) [Compound 228] | 5 (Level 5: growth control rate is above 85%) | 5 (Level 5: growth control rate is above 85%) | 5 (Level 5: growth control rate is above 85%) | 5 (Level 5: growth control rate is above 85%) | 5 (Level 5: growth control rate is above 85%) | 5 (Level 5: growth control rate is above 85%) |  |
| COC(=O)C(C)O/N=C/c1cc(-n2c(=S)cc(C(F)(F)F)n(C)c2=O)c(F)cc1Cl (racemic) [Compound 349] | 5 (Level 5: growth control rate is above 85%) | 5 (Level 5: growth control rate is above 85%) | 5 (Level 5: growth control rate is above 85%) | 5 (Level 5: growth control rate is above 85%) | 5 (Level 5: growth control rate is above 85%) | 5 (Level 5: growth control rate is above 85%) |  |
| COC(=O)C(C)O/N=C/c1cc(-n2c(=S)cc(C(F)(F)F)n(C)c2=S)c(F)cc1Cl (racemic) [Compound 351] |  |  |  |  |  |  | Weeding effect in post-emergence stage, Abutilon theophrasti ([1]; Dose 60 g/ha): 5 (Level 5: growth control rate is above 85%); Weeding effect in post-emergence stage, Alopecurus japonicus ([2]; Dose 60 g/ha): 5 (Level 5: growth control rate is above 85%); Weeding effect in post-emergence stage, Digitaria sanguinalis ([3]; Dose 60 g/ha): 5 (Level 5: growth control rate is above 85%); Weeding effect in post-emergence stage, Eleusine indica ([4]; Dose 60 g/ha): 5 (Level 5: growth control rate is above 85%); Weeding effect in post-emergence stage, Setaria viridis ([5]; Dose 60 g/ha): 5 (Level 5: growth control rate is above 85%); Weeding effect in post-emergence stage, Echinochloa crusgalli ([6]; Dose 60 g/ha): 5 (Level 5: growth control rate is above 85%) |
| COC(=O)C(C)O/N=C/c1cc(-n2c(=S)cc(C(F)(F)F)n(C)c2=O)c(F)cc1Br (racemic) [Compound 388] |  |  |  |  |  |  | Weeding effect in post-emergence stage, Abutilon theophrasti (level) ([1]; Dose 15 g/ha): 5 (Level 5: growth control rate is above 85%); Weeding effect in post-emergence stage, Alopecurus japonicus (level) ([2]; Dose 15 g/ha): 4 (Level 4: growth control rate is greater than or equal to 60% and less than 85%); Weeding effect in post-emergence stage, Digitaria sanguinalis (level) ([3]; Dose 15 g/ha): 5 (Level 5: growth control rate is above 85%); Weeding effect in post-emergence stage, Eleusine indica (level) ([4]; Dose 15 g/ha): 5 (Level 5: growth control rate is above 85%); Weeding effect in post-emergence stage, Setaria viridis (level) ([5]; Dose 15 g/ha): 5 (Level 5: growth control rate is above 85%); Weeding effect in post-emergence stage, Echinochloa crusgalli (level) ([6]; Dose 15 g/ha): 5 (Level 5: growth control rate is above 85%) |
| COC(=O)C(C)O/N=C/c1cc(-n2c(=S)cc(C(F)(F)F)n(C)c2=S)c(F)cc1C#N (racemic) [Compound 390] |  |  |  |  |  |  | Weeding effect in post-emergence stage, Abutilon theophrasti (level) ([1]; Dose 15 g/ha): 5 (Level 5: growth control rate is above 85%); Weeding effect in post-emergence stage, Alopecurus japonicus (level) ([2]; Dose 15 g/ha): 5 (Level 5: growth control rate is above 85%); Weeding effect in post-emergence stage, Digitaria sanguinalis (level) ([3]; Dose 15 g/ha): 5 (Level 5: growth control rate is above 85%); Weeding effect in post-emergence stage, Eleusine indica (level) ([4]; Dose 15 g/ha): 5 (Level 5: growth control rate is above 85%); Weeding effect in post-emergence stage, Setaria viridis (level) ([5]; Dose 15 g/ha): 5 (Level 5: growth control rate is above 85%); Weeding effect in post-emergence stage, Echinochloa crusgalli (level) ([6]; Dose 15 g/ha): 5 (Level 5: growth control rate is above 85%) |
| COC(=O)C(C)O/N=C/c1cc(-n2c(=S)cc(C(F)(F)F)n(C)c2=S)c(F)cc1Br (racemic) [Compound 391] |  |  |  |  |  |  | Weeding effect in post-emergence stage, Abutilon theophrasti (level) ([1]; Dose 60 g/ha): 5 (Level 5: growth control rate is above 85%); Weeding effect in post-emergence stage, Alopecurus japonicus (level) ([2]; Dose 60 g/ha): 5 (Level 5: growth control rate is above 85%); Weeding effect in post-emergence stage, Digitaria sanguinalis (level) ([3]; Dose 60 g/ha): 5 (Level 5: growth control rate is above 85%); Weeding effect in post-emergence stage, Eleusine indica (level) ([4]; Dose 60 g/ha): 5 (Level 5: growth control rate is above 85%); Weeding effect in post-emergence stage, Setaria viridis (level) ([5]; Dose 60 g/ha): 5 (Level 5: growth control rate is above 85%); Weeding effect in post-emergence stage, Echinochloa crusgalli (level) ([6]; Dose 60 g/ha): 5 (Level 5: growth control rate is above 85%) |
